Measurements taken from BindingDB's records for doi:10.1016/s0960-894x(99)00042-6 (1999).

Experiment: Inhibitory activity against beta-glucosidase of sweet almond

Structure (SMILES): C[C@@H]1NC[C@@H](CO)[C@@H](O)[C@@H]1O [5-Hydroxymethyl-2-methyl-piperidine-3,4-diol]
- Ki: 2100 nM
